Results from patent US6451353B1 (priority 1997, dated 2002).

Key:
Tumor = assay: Tumor-inhibiting rates of extracts obtained with different solvents; type: in vivo, mice; details: 5-FU 10 mg/kg
cervical carcinoma U14 = assay: Inhibiting effect on mouse cervical carcinoma U14; type: in vivo; details: Table 13, ICR mice; 5-Fu 5 mg/kg/d i.p. × 9
Protocol: Healthy Kunming and ICR mice with a body weight of 18-22 g. each were obtained from the breeding center of Sichuan Institute of Antibiotic Industry, Chengdu, Sichuan Province, P. R. China. Both male and female mice were used in the experiment. Uterine carcinoma U14 was obtained from the Division of Pharmacology, Sichuan Institute of Antibiotic Industry, Chengdu, Sichuan Province, P. R. China. […] The experiment was carried out in vivo according to “Procedures of in vivo Screening of Antineoplastic Drugs” established in P. R. China in 1978.

Lewis lung carcinoma = assay: Inhibiting effect on Lewis lung carcinoma; type: in vivo, mice; details: Table 9; 5-Fu 5 mg/kg/d i.p. × 10
Protocol: Healthy C57BL/6N mice with a body weight of 18-22 g. each were obtained from the breeding center of Sichuan Institute of Antibiotic Industry, Chengdu, Sichuan Province, P. R. China. Both male and female mice were used in the experiment. Lewis lung carcinoma was obtained from the Division of Pharmacology, Sichuan Institute of Antibiotic Industry, Chengdu, Sichuan Province, P. R. China. […] The experiment was carried out in vivo according to “Procedures of in vivo Screening of Antineoplastic Drugs” established in P. R. China in 1978.

Sarcoma 180 [1] = assay: Inhibiting effect on mouse sarcoma 180; type: in vivo; details: ICR mice; 5-Fu 5 mg/kg/d i.p. × 12
Protocol: Healthy Kunming and ICR mice with a body weight of 18-22 g. each were obtained from the breeding center of Sichuan Institute of Antibiotic Industry, Chengdu, Sichuan Province, P. R. China. Both male and female mice were used in the experiment. Sarcoma 180 was obtained from the Division of Pharmacology, Sichuan Institute of Antibiotic Industry, Chengdu, Sichuan Province, P. R. China. […] The experiment was carried out in vivo according to “Procedures of in vivo Screening of Antineoplastic Drugs” established in P. R. China in 1978.

Sarcoma 180 [2] = assay: Combination with 5-fluorouracil and 60Co gamma rays on mouse sarcoma 180; type: in vivo; details: Kunming mice, Fagopyrum Composition 100 mg/kg p.o. × 10, 5-FU 5 mg/kg i.p. × 10, γ 300 rad × 1
Protocol: 60 Kunming mice were obtained from the breeding center of Chengdu Institute of Biological Products, the Ministry of Health, Chengdu, Sichuan Province, P. R. China.
Sarcoma 180 was obtained from the Division of Pharmacology, Sichuan Institute of Antibiotic Industry, Chengdu, Sichuan Province, P. R. China. The tumor line had been passed on several times in Kunming mice.
The drug was prepared by Nantong Pharmaceuticals, Nantong, Jiangsu Province, P. R. China.
Inoculation of tumor line and evaluation of therapeutic efficacy were performed according to “Procedures of in vivo Screening of Antineoplastic Drugs” established in P. R. China in 1978.
Sixty mice were divided into 6 groups, 10 mice for each group. Group 1 was the control group wherein the mice were treated only by saline. Groups 2 to 6 were treatment groups using different therapies. […] Group 3 was treated with 5-Fluorouracil. Group 4 was treated with ^60Co irradiation. […] Result of each group was then calculated and compared.

Change in Mean Value of Body Weight (cervical carcinoma U14): +3.93 g
Change in Mean Value of Body Weight (Lewis lung carcinoma): +0.4 g
Change in Mean Value of Body Weight (Sarcoma 180 [1]): +2.01 g
SMILES: O=c1[nH]cc(F)c(=O)[nH]1 [5-FU, 5-Fluorouracil]
Tumor-inhibiting Rate (Tumor): 31.37%
Average Tumor Weight (x ± SD) (cervical carcinoma U14): 1.27 ± 0.37 g
Tumor Inhibiting Rate (cervical carcinoma U14): 35.53%
Average Tumor Weight (x ± SD) (Lewis lung carcinoma): 0.74 ± 0.49 g
Tumor Inhibiting Rate (Lewis lung carcinoma): 52.26%
Average Tumor Weight (x ± SD) (Sarcoma 180 [1]): 0.49 ± 0.25 g
Tumor Inhibiting Rate (Sarcoma 180 [1]): 51.49%
Tumor Inhibiting Rate (Sarcoma 180 [2]): 47.8%
Tumor Weight (Sarcoma 180 [2]; saline control 1.36): 0.71 g
